The values that follow are results of earlier work, collected in US20210268271A1, “SYSTEMS AND METHODS FOR VISCERAL NEUROMODULATION” (priority 2018, published 2021).

Data set [1] deals with TRPV1 expressing cardiac nerve endings. The following applies: in vivo.

On to `CCN(CC)CC(=O)Nc1c(C)cccc1C` [lidocaine], for which the duration of block entry in the data set with deep cardiac plexus is “approximately 2 hours”.

As to `C[C@H](CCCC(C)(C)O)[C@H]1CC[C@H]2[C@@H]3CC=C4C[C@@H](O)CC[C@]4(C)[C@H]3CC[C@]12C` [25-OH-cholesterol], in the data set on sympathetic ganglia, the “relative potency among cholesterol oxides” value is recorded as “most potent”. `CCCCN1CCCCC1C(=O)Nc1c(C)cccc1C` (stereo not shown) [bupivacaine]: the duration of block entry in the data set on deep cardiac plexus was “approximately 2 hours”.

Turning to `C=C(C)[C@]12C[C@@H](C)[C@@]34O[C@](Cc5ccccc5)(O[C@@H]1[C@@H]3C=C(COC(=O)Cc1ccc(O)c(OC)c1)C[C@]1(O)C(=O)C(C)=C[C@@H]41)O2` [RTX, resiniferatoxin], the “duration of complete ablation of TRPV1 expressing cardiac nerve endings” value in data set [1] was “over 10 weeks”.
